In patent US8338426B2, “Piperazinyl derivatives useful as modulators of the neuropeptide Y2 receptor” (Janssen Pharmaceutica NV, priority 2007, dated 2012):
Like-named read-outs stand apart in the source and are kept apart here.

Columns and labels:
Y5 receptor subtype = target: T1, Y5 receptor subtype (Homo sapiens, UniProt Q15761); test: [125I]PYY binding in HEK-293 cells expressing the Y5 receptor subtype; settings: concentrations up to 10; HEK-293 cells expressing Y5
T1 construct: expressed in transfected cells; host or cells: HEK-293 cells
T1 sequence (Q15761 1-445): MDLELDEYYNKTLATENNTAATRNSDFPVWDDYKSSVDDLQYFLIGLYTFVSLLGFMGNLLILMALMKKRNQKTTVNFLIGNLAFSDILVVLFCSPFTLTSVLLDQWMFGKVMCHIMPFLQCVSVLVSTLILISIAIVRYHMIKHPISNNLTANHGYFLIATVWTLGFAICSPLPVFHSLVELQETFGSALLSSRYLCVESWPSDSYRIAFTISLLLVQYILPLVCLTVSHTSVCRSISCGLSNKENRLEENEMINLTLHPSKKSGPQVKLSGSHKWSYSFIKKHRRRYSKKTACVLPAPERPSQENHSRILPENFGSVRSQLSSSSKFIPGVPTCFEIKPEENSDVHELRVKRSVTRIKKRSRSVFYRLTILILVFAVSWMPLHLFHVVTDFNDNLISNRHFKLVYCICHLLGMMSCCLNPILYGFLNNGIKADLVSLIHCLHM
Description: The selectivity of the compound of formula (A) was further evaluated in a large variety of ion-channels, transporters and receptor-binding assays including the Y1 receptor subtype. These assays were performed by CEREP (Celles L'Evescault, France; www.cere.com<http//www.cerea.com>). Selectivity vs the Y5 receptor subtype was evaluated as described in Bonaventure, P., D. Nepomuceno, C. Mazur, B. Lord, D. A. Rudolph, J. A. Jablonowski, N. I. Carruthers and T. W. Lovenberg, J Pharmacol Exp Ther. 2004, 308, 1130.

[1] = target: T2, Y2 receptor binding sites in rat hippocampus (Rattus norvegicus, UniProt Q9ERC0); test: Ex vivo Y2 receptor occupancy in rats (autoradiography)
T2 construct: from tissue; host or cells: rat brain sections (hippocampus) after in vivo dosing
T2 sequence (Q9ERC0 1-381): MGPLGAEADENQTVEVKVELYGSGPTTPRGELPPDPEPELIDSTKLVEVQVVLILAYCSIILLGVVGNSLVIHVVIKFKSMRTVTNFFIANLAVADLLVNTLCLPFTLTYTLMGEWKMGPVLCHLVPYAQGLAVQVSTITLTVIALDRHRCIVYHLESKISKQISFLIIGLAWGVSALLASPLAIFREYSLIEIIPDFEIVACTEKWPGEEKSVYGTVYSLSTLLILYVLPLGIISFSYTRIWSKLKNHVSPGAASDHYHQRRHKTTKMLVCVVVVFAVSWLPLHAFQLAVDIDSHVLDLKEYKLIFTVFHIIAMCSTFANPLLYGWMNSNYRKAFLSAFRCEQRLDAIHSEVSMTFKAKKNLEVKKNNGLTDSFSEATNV
Description: The pharmacokinetic, blood-brain barrier penetration and ex vivo receptor occupancy studies were performed as described in Bonaventure, P., D. Nepomuceno, C. Mazur, B. Lord, D. A. Rudolph, J. A. Jablonowski, N. I. Carruthers and T. W. Lovenberg, J Pharmacol Exp Ther. 2004, 308, 1130.
The compound of formula (A) was formulated in 20% hydroxypropylbetacyclodextrine. Subcutaneous (SC), oral (PO) or intravenous (IV) dosing was followed by blood sampling via cardiac puncture over a time course. Blood samples consisted of 250 μl samples taken from the heart using a 23-gauge needle into 1.5 ml micro-centrifuge tubes. Brains were removed from the animals and bisected down the midsagittal plane. One hemisphere was frozen on dry ice for ex vivo receptor binding autoradiography and the other was homogenized for LC/MS-MS analysis.
Ex vivo receptor binding autoradiography was performed on brain sections. Twenty-micron-thick coronal sections at the level of the […] regions were collected and incubated for 10 min with 100 pM [^125I]PYY in Krebs-Ringer phosphate buffer (KRP) at pH 7.4 supplemented with 0.1% BSA, 0.05% bacitracin, and 1 μM BIBP-3226 for Y1 receptor occlusion. The sections were not washed prior to incubation and were incubated 10 minutes to avoid dissociation. Nonspecific binding was determined using adjacent sections incubated in the presence of 1 μM unlabelled hNPY. At the end of the incubation, sections were washed 4 times (4 minutes each) in ice cold buffer, dipped in deionized water and rapidly dried under a stream of cold air. Sections were exposed to a Fujifilm Imaging Plate (BAS-MS2025) for 12 hours. The Phosphor Imaging Plate was scanned using a Fuji Bio-Imaging Analyzer System (BAS-5000). The digitized computer images generated by the scanner were visualized and quantified using ImageGauge V3.12 software (Fujifilm).

[2] = Pharmacokinetic study in dogs; type: in vivo, male Beagle dog; settings: dog; for Vd: iv, 1 mg/kg
Description: Male Beagle Canines 11-15 kilograms in body weight were used. Three animals received a bolus oral dose of the compound via an oral gavage at a dose of 5 mg/kg. Three animals received a bolus intravenous dose of the compound at a dose of 1 mg/kg in the right cephalic vein. Blood sampling of the cephalic or jugular veins followed dosing over a time course. Blood samples consisted of 4-5 mL samples taken from the vein into heparinized blood collection tubes containing Li Heparin. These blood samples were then centrifuged. The plasma was retained and kept frozen in a −40° C. freezer until processed for analysis. The time course for sampling was as follows: 0.25, 0.5, 1, 2, 4, 8, and 24 hours for oral administration and 0.08, 0.25, 0.5, 1, 2, 4, 8, and 24 hours for intravenous administration. These samples were analyzed by LC-MS/MS. The LC-MS/MS data was analyzed using a non-compartmental model with the software package WinNonlin Version 4.0.1 (Pharsight, Palo Alto, Calif.). All figures plasma level versus time figures were created using GraphPad Prism 4 (San Diego, Calif.).
The compound of formula (A) was formulated in 20% hydroxypropyl-β-cyclodextrine. Oral and intravenous pharmacokinetic parameters for the compound of formula (A) were determined in male Beagles with results as shown in FIG. 3 and Table 3 below.

[3] = male, beagle, plasma, IV 1 mg/kg
[4] = male, beagle, plasma, PO 5 mg/kg

- time of maximal receptor binding site occupancy ([1]; rat hippocampus, SC 10 mg/kg): ~1 h
- ED50 ([1]; rat hippocampus, SC, t=60 min): 2 mg/kg
- receptor occupancy at 10 mg/kg ([1]; rat, 10 mg/kg SC, read-out: maximal ex vivo receptor occupancy): ~100%
- Lambda z ([2]; IV 1 mg/kg): 1.47 h⁻¹
- Lambda z ([2]; PO 5 mg/kg): 0.71 h⁻¹
- Vd ([2]; male, beagle, plasma, IV 1 mg/kg, read-out: VSS): 0.57 L/kg
- Vd ([2]; male, beagle, plasma, IV 1 mg/kg, read-out: Vz): 0.64 L/kg
- AUC(0-inf) [2, 3]: 1.89 µM·h
- AUC(0-t) [2, 3]: 0.89 µM·h
- C0 [2, 3]: 6.24 µM
- MRT inf [2, 3]: 36.6 min
- clearance [2, 3]: 15.8 mL/min/kg
- half-life [2, 3]: 28.2 min
- AUC(0-inf) [2, 4]: 2.79 µM·h
- AUC(0-t) [2, 4]: 2.73 µM·h
- Cmax [2, 4]: 1.55 µM
- MRT inf [2, 4]: 103 min
- Tmax [2, 4]: 49.8 min
- half-life [2, 4]: 59.4 min
SMILES: CCN(CC)C(=O)C(c1ccccc1)N1CCN(c2ccc(NC(=O)c3ccccc3-c3cccnc3)cc2F)CC1 (racemic) [Cmpd (A), N-{4-[4-(Diethylcarbamoyl-phenyl-methyl)-piperazin-1-yl]-3-fluoro-phenyl}-2-pyridin-3-yl-benzamide]
- competition for specific [125I]PYY receptor binding sites, Y5 (Y5 receptor subtype): failed to compete for significant amounts
